pEC50: −log10 of the molar value.

The first assay deals with AMPK. The assay can be described thus: AMPK activation, enzyme-linked immunosorbent assay. In kind it is biochemical. The conditions noted are these: Table 11, compounds of Table 4. A digest of the protocol:
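Read-out: ELISA, used to detect compound-driven activation of AMPK.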
In the case of `CCNS(=O)(=O)c1ccc(CN2CCN(C(=O)c3ccc(C(=O)NC4CCN(Cc5ccc(C#N)cc5)CC4)cn3)CC2)cc1` [Compound 4-17, N-(1-(4-cyanobenzyl)piperidin-4-yl)-6-(4-(4-(N-ethylsulfamoyl)benzyl)piperazine-1-carbonyl)nicotinamide], the pEC50 (commonly the EC50 on a negative log10 scale, so that one unit is a factor of ten) is 5.30 to 6.00.

The same assay, now with this note: Table 12, compounds of Table 5.
Compound `COc1ccc(CN2CCC(Oc3ccc(C(=O)NC4CCN(Cc5ccccc5)CC4)cc3Cl)CC2)cc1` [Compound 5-1, N-(1-benzylpiperidin-4-yl)-3-chloro-4-(1-(4-methoxybenzyl)piperidin-4-yloxy)benzamide] gave a pEC50 greater than 6.00.
On to `COc1cc(C(=O)NC2CCN(Cc3ccccc3)CC2)ccc1OC1CCN(Cc2ccccc2)CC1` [Compound 5-2, N-(1-benzylpiperidin-4-yl)-4-(1-benzylpiperidin-4-yloxy)-3-methoxybenzamide], for which the pEC50 was greater than 6.00.
Consider `Cn1cncc1CN1CCC(Oc2ccc(C(=O)NC3CCN(Cc4ccccc4)CC3)cc2)CC1` [Compound 5-4, N-(1-benzylpiperidin-4-yl)-4-(1-((1-methyl-1H-imidazol-5-yl)methyl)piperidin-4-yloxy)benzamide], for which the pEC50 is less than 4.00.
Consider `Cn1cncc1CN1CCC(Oc2ccc(C(=O)NC3CCN(Cc4ccccc4)CC3)cc2Cl)CC1` [Compound 5-5, N-(1-benzylpiperidin-4-yl)-3-chloro-4-(1-((1-methyl-1H-imidazol-5-yl)methyl)piperidin-4-yloxy)benzamide], for which the pEC50 is 4.00 to 4.30.
The compound `O=C(NC1CCN(Cc2ccccc2)CC1)c1ccc(OC2CCN(Cc3ccncc3)CC2)c(Cl)c1` [Compound 5-6, N-(1-benzylpiperidin-4-yl)-3-chloro-4-(1-(pyridin-4-ylmethyl)piperidin-4-yloxy)benzamide] had a pEC50 greater than 6.00.
Turning to `COc1cc(C(=O)NC2CCN(Cc3ccccc3)CC2)ccc1OC1CCN(CCCc2ccccc2)CC1` [Compound 5-7, N-(1-benzylpiperidin-4-yl)-3-methoxy-4-(1-(3-phenylpropyl)piperidin-4-yloxy)benzamide], the pEC50 is greater than 6.00.
As for `COc1cc(C(=O)NC2CCN(Cc3ccccc3)CC2)ccc1OC1CCN(c2cccs2)CC1` [Compound 5-8, N-(1-benzylpiperidin-4-yl)-3-methoxy-4-(1-(thiophen-2-yl)piperidin-4-yloxy)benzamide], the pEC50 was 5.00 to 6.00.
Regarding `COc1cc(C(=O)NC2CCN(Cc3ccccc3)CC2)ccc1OC1CCN(S(C)(=O)=O)CC1` [Compound 5-9, N-(1-benzylpiperidin-4-yl)-3-methoxy-4-(1-(methylsulfonyl)piperidin-4-yloxy)benzamide], the negative logarithm of the EC50 (pEC50) was 4.30 to 4.70.
On the same count and under the same terms, as for `O=C(NC1CCN(Cc2ccccc2)CC1)c1ccc(OC2CCN(c3cccs3)CC2)c(Cl)c1` [Compound 5-10, N-(1-benzylpiperidin-4-yl)-3-chloro-4-(1-(thiophen-2-yl)piperidin-4-yloxy)benzamide], the figure is 5.00 to 6.00; as for `O=C(NC1CCN(Cc2ccccc2)CC1)c1ccc(OC2CCN(c3ccco3)CC2)c(Cl)c1` [Compound 5-11, N-(1-benzylpiperidin-4-yl)-3-chloro-4-(1-(furan-2-yl)piperidin-4-yloxy)benzamide], 5.00 to 6.00.
As for `COc1cc(C(=O)NC2CCN(Cc3ccccc3)CC2)ccc1OC1CCN(c2ccco2)CC1` [Compound 5-12, N-(1-benzylpiperidin-4-yl)-3-methoxy-4-(1-(furan-2-yl)piperidin-4-yloxy)benzamide], the negative-log EC50 (pEC50) was 5.00 to 6.00.
Regarding `O=C(NC1CCN(Cc2ccccc2)CC1)c1cccc(OC2CCN(Cc3ccccc3)CC2)c1` [Compound 5-13, N-(1-benzylpiperidin-4-yl)-3-(1-benzylpiperidin-4-yloxy)benzamide], the pEC50 is 4.30 to 4.70.
The same measure, in the same setting: in the case of `O=C(NC1CCN(Cc2ccccc2)CC1)c1ccc(OC2CCN(Cc3ccccc3)CC2)c(Cl)c1` [Compound 5-14, N-(1-benzylpiperidin-4-yl)-4-(1-benzylpiperidin-4-yloxy)-3-chlorobenzamide] it was greater than 6.00.
As to `O=C(NC1CCN(Cc2ccccc2)CC1)c1ccc(OC2CCN(Cc3ccc4c(c3)OCCO4)CC2)c(Cl)c1` [Compound 5-15], the pEC50 is greater than 6.00.
`CC(C)(C)c1ccc(CN2CCC(Oc3ccc(C(=O)NC4CCN(Cc5ccccc5)CC4)cc3Cl)CC2)cc1` [Compound 5-16, N-(1-benzylpiperidin-4-yl)-4-(1-(4-tert-butylbenzyl)piperidin-4-yloxy)-3-chlorobenzamide]: the pEC50 was greater than 6.00.
With `O=C(NC1CCN(Cc2ccccc2)CC1)c1ccc(OC2CCN(c3ccc(C(F)(F)F)cc3)CC2)c(Cl)c1` [Compound 5-17], the pEC50 is greater than 6.00.
`O=C(NC1CCN(Cc2ccccc2)CC1)c1ccc(OC2CCN(C(=O)c3ccc(C(F)(F)F)cc3)CC2)c(Cl)c1` [Compound 5-18, N-(1-benzylpiperidin-4-yl)-3-chloro-4-(1-(4-(trifluoromethyl)benzoyl)piperidin-4-yloxy)benzamide] had a pEC50 greater than 6.00.
In turn, `O=C(NC1CCN(Cc2ccccc2)CC1)c1ccc(OC2CCN(Cc3ccc(F)cc3)CC2)c(Cl)c1` [Compound 5-19, N-(1-benzylpiperidin-4-yl)-3-chloro-4-(1-(4-fluorobenzyl)piperidin-4-yloxy)benzamide] had a pEC50 greater than 6.00.
Same read-out and setting: in the case of `CC(C)(C)c1ccc(CN2CCC(Oc3ccc(C(=O)NC4CCN(Cc5ccccc5)CC4)cc3F)CC2)cc1` [Compound 5-20, N-(1-benzylpiperidin-4-yl)-3-fluoro-4-(1-(4-tert-butylbenzyl)piperidin-4-yloxy)benzamide] it was greater than 6.00; in that of `CC(c1ccccc1)N1CCC(Oc2ccc(C(=O)NC3CCN(Cc4ccccc4)CC3)cc2F)CC1` (stereo not shown) [Compound 5-21, N-(1-benzylpiperidin-4-yl)-3-fluoro-4-(1-(1-phenylethyl)piperidin-4-yloxy)benzamide], 5.00 to 6.00; in that of `O=C(NC1CCN(Cc2ccccc2)CC1)c1ccc(OC2CCN(C(=O)c3ccc(F)cc3)CC2)c(Cl)c1` [Compound 5-22, N-(1-benzylpiperidin-4-yl)-3-chloro-4-(1-(4-fluorobenzoyl)piperidin-4-yloxy)benzamide], 5.00 to 6.00.
On the same count and under the same terms, as for `O=C(NC1CCN(Cc2ccccc2)CC1)c1ccc(OC2CCN(c3ccc(C(F)(F)F)cc3)CC2)c(F)c1` [Compound 5-23, N-(1-benzylpiperidin-4-yl)-3-fluoro-4-(1-(4-(trifluoromethyl)phenyl)piperidin-4-yloxy)benzamide], the figure is greater than 6.00; as for `O=C(NC1CCN(Cc2ccccc2)CC1)c1ccc(OC2CCN(Cc3ccccc3C(F)(F)F)CC2)c(Cl)c1` [Compound 5-24, N-(1-benzylpiperidin-4-yl)-3-chloro-4-(1-(2-(trifluoromethyl)benzyl)piperidin-4-yloxy)benzamide], 4.70 to 5.00.
The compound `O=C(NC1CCN(c2ccccc2)CC1)c1ccc(OC2CCN(c3ccc(C(F)(F)F)cc3)CC2)c(F)c1` [Compound 5-25, 3-fluoro-N-(1-phenylpiperidin-4-yl)-4-(1-(4-(trifluoromethyl)phenyl)piperidin-4-yloxy)benzamide] had a negative logarithm of the EC50 (pEC50) of less than 4.00.
On to `CC(C)(C)OC(=O)N1CCC(NC(=O)c2ccc(OC3CCN(c4ccc(C(F)(F)F)cc4)CC3)c(F)c2)CC1` [Compound 5-26, tert-butyl 4-(3-fluoro-4-(1-(4-(trifluoromethyl)phenyl)piperidin-4-yloxy)benzamido)piperidine-1-carboxylate], for which the pEC50 was greater than 6.00.
For the compound `O=C(NC1CCN(Cc2ccc(F)cc2)CC1)c1ccc(OC2CCN(c3ccc(C(F)(F)F)cc3)CC2)c(F)c1` [Compound 5-27, 3-fluoro-N-(1-(4-fluorobenzyl)piperidin-4-yl)-4-(1-(4-(trifluoromethyl)phenyl)piperidin-4-yloxy)benzamide], the pEC50 was greater than 6.00.
Regarding `O=C(NC1CCN(Cc2ccncc2)CC1)c1ccc(OC2CCN(c3ccc(C(F)(F)F)cc3)CC2)c(F)c1` [Compound 5-28, 3-fluoro-N-(1-(pyridin-4-ylmethyl)piperidin-4-yl)-4-(1-(4-(trifluoromethyl)phenyl)piperidin-4-yloxy)benzamide], the negative-log EC50 (pEC50) is greater than 6.00.
On to `O=C(NC1CCN(Cc2cccnc2)CC1)c1ccc(OC2CCN(c3ccc(C(F)(F)F)cc3)CC2)c(F)c1` [Compound 5-29, 3-fluoro-N-(1-(pyridin-3-ylmethyl)piperidin-4-yl)-4-(1-(4-(trifluoromethyl)phenyl)piperidin-4-yloxy)benzamide], for which the pEC50 was greater than 6.00.
For `CC(C)(C)C(=O)N1CCC(NC(=O)c2ccc(OC3CCN(c4ccc(C(F)(F)F)cc4)CC3)c(F)c2)CC1` [Compound 5-30, 3-fluoro-N-(1-pivaloylpiperidin-4-yl)-4-(1-(4-(trifluoromethyl)phenyl)piperidin-4-yloxy)benzamide], the pEC50 is greater than 6.00.
On to `O=C(NC1CCN(C(=O)c2ccc(F)cc2)CC1)c1ccc(OC2CCN(c3ccc(C(F)(F)F)cc3)CC2)c(F)c1` [Compound 5-31, 3-fluoro-N-(1-(4-fluorobenzoyl)piperidin-4-yl)-4-(1-(4-(trifluoromethyl)phenyl)piperidin-4-yloxy)benzamide], for which the pEC50 is greater than 6.00.
For the compound `O=C(NC1CCN(Cc2ccccn2)CC1)c1ccc(OC2CCN(c3ccc(C(F)(F)F)cc3)CC2)c(F)c1` [Compound 5-32, 3-fluoro-N-(1-(pyridin-2-ylmethyl)piperidin-4-yl)-4-(1-(4-(trifluoromethyl)phenyl)piperidin-4-yloxy)benzamide], the pEC50 is greater than 6.00.
`COC(=O)c1ccc(CN2CCC(NC(=O)c3ccc(OC4CCN(c5ccc(C(F)(F)F)cc5)CC4)c(F)c3)CC2)cc1` [Compound 5-33, methyl 4-((4-(3-fluoro-4-(1-(4-(trifluoromethyl)phenyl)piperidin-4-yloxy)benzamido)piperidin-1-yl)methyl)benzoate]: the pEC50 is greater than 6.00.
`CC(C)S(=O)(=O)N1CCC(NC(=O)c2ccc(OC3CCN(c4ccc(C(F)(F)F)cc4)CC3)c(F)c2)CC1` [Compound 5-34, 3-fluoro-N-(1-(isopropylsulfonyl)piperidin-4-yl)-4-(1-(4-(trifluoromethyl)phenyl)piperidin-4-yloxy)benzamide] showed a pEC50 greater than 6.00.

These data come from US9409884B2 (Rigel Pharmaceuticals, Inc., priority 2012, dated 2016).
